From ChEMBL document CHEMBL1641582, “Synthesis and in vitro evaluation of 2-amino-4-N-piperazinyl-6-(3,4-dimethoxyphenyl)-pteridines as dual immunosuppressive and anti-inflammatory agents” (Bioorg Med Chem Lett, 2011)

How the values were obtained:
[1] = Immunosuppressive activity in human T cells assessed as inhibition of LFA1-mediated cell proliferation by mixed lymphocyte reaction assay; format: functional, cell-based
PBMC = assay: Antiinflammatory activity in human PBMC assessed as inhibition of LPS-induced TNFalpha production; format: functional, cell-based

In the case of CCOc1nc(N)nc2ncc(-c3ccc(Cl)c(Cl)c3)nc12, the IC50 [1] is reported as over 10000 nM and the IC50 (PBMC) is reported as over 10000 nM.
Compound COc1ccc(-c2cnc3nc(N)nc(N4CCSCC4)c3n2)cc1OC has an IC50 [1] of 400 nM and an IC50 (PBMC) of 500 nM.
For COc1ccc(-c2cnc3nc(N)nc(N4CCN(C(=O)COc5ccccc5)CC4)c3n2)cc1OC, the IC50 [1] was 4 nM and the IC50 (PBMC) was 80 nM.
For COc1ccc(-c2cnc3nc(N)nc(N4CCN(C(=O)Nc5ccccc5)CC4)c3n2)cc1OC, the IC50 [1] was 3.4 nM and the IC50 (PBMC) was 90 nM.
In the case of CCOc1nc(N)nc2ncc(-c3cccc(OC)c3)nc12, the IC50 [1] is reported as 8300 nM and the IC50 (PBMC) is reported as 10000 nM.
In the case of COc1ccc(-c2cnc3nc(N)nc(N4CCN(C(=O)Nc5ccc(C)cc5)CC4)c3n2)cc1OC, the IC50 [1] is reported as 0.8 nM and the IC50 (PBMC) is reported as 430 nM.
In the case of CCOc1nc(N)nc2ncc(-c3ccc(C(F)(F)F)cc3)nc12, the IC50 [1] is reported as 10000 nM and the IC50 (PBMC) is reported as over 10000 nM.
With COc1ccc(-c2cnc3nc(N)nc(NCc4cccs4)c3n2)cc1OC the IC50 [1] was 4100 nM and the IC50 (PBMC) was 7200 nM.
For COc1ccc(-c2cnc3nc(N)nc(OC(C)C)c3n2)cc1OC, the IC50 [1] was 400 nM and the IC50 (PBMC) was 2300 nM.
Compound CCOc1nc(N)nc2ncc(-c3ccc(OC)cc3)nc12 has an IC50 [1] of over 10000 nM and an IC50 (PBMC) of 4500 nM.
For COc1ccc(-c2cnc3nc(N)nc(N4CCN(Cc5ccccc5)CC4)c3n2)cc1OC, the IC50 (PBMC) was 90 nM.
COc1ccc(-c2cnc3nc(N)nc(NCCc4ccccc4)c3n2)cc1OC gave an IC50 [1] of 6000 nM and an IC50 (PBMC) of 7100 nM.
COc1ccc(-c2cnc3nc(N)nc(N4CCN(Cc5c(Cl)cccc5Cl)CC4)c3n2)cc1OC showed an IC50 [1] of 7600 nM and an IC50 (PBMC) of 700 nM.
Compound COc1ccc(-c2cnc3nc(N)nc(N4CCC(C)CC4)c3n2)cc1OC has an IC50 [1] of 800 nM and an IC50 (PBMC) of 300 nM.
Work on COc1ccc(-c2cnc3nc(N)nc(NC4CCCC4)c3n2)cc1OC yielded an IC50 [1] of 800 nM and an IC50 (PBMC) of 600 nM.
Compound CC(C)Oc1nc(N)nc2ncc(-c3ccc(F)c(F)c3)nc12 has an IC50 [1] of 10000 nM and an IC50 (PBMC) of 6600 nM.
For COc1ccc(-c2cnc3nc(N)nc(N4CCN(C(=O)COc5ccc(Cl)cc5)CC4)c3n2)cc1OC, the IC50 [1] was 0.5 nM and the IC50 (PBMC) was 77 nM.
With COc1ccc(-c2cnc3nc(N)nc(N4CCN(C(=O)c5ccccc5)CC4)c3n2)cc1OC the IC50 [1] was 400 nM and the IC50 (PBMC) was 400 nM.
Work on COc1ccc(-c2cnc3nc(N)nc(N4CCN(c5cc(Cl)cc(Cl)c5)CC4)c3n2)cc1OC yielded an IC50 [1] of 3400 nM and an IC50 (PBMC) of 500 nM.
COc1ccc(-c2cnc3nc(N)nc(N4CCN(c5ccc(F)cc5)CC4)c3n2)cc1OC showed an IC50 [1] of 100 nM and an IC50 (PBMC) of 50 nM.
For COc1ccc(-c2cnc3nc(N)nc(N4CCN(Cc5ccc(C(C)(C)C)cc5)CC4)c3n2)cc1OC, the IC50 [1] was 4300 nM and the IC50 (PBMC) was 700 nM.
COc1ccc(-c2cnc3nc(N)nc(NCc4ccccc4)c3n2)cc1OC showed an IC50 [1] of 13000 nM and an IC50 (PBMC) of 6500 nM.
COc1ccc(-c2cnc3nc(N)nc(OC(C)C)c3n2)cc1 gave an IC50 [1] of over 10000 nM and an IC50 (PBMC) of 6200 nM.
For COc1ccc(-c2cnc3nc(N)nc(N4CCN(Cc5ccccc5F)CC4)c3n2)cc1OC, the IC50 [1] was 700 nM and the IC50 (PBMC) was 200 nM.
In the case of COc1ccc(-c2cnc3nc(N)nc(N4CCOCC4)c3n2)cc1OC, the IC50 [1] is reported as 100 nM and the IC50 (PBMC) is reported as 400 nM.
In the case of COc1ccc(-c2cnc3nc(N)nc(N4CCN(C(=O)NCc5ccccc5)CC4)c3n2)cc1OC, the IC50 [1] is reported as 18 nM.
Work on CCOc1ccc(-c2cnc3nc(N)nc(OC(C)C)c3n2)cc1 yielded an IC50 [1] of 10000 nM and an IC50 (PBMC) of 10000 nM.
COc1ccc(-c2cnc3nc(N)nc(N4CCN(C(=O)Nc5cccc(C)c5)CC4)c3n2)cc1OC gave an IC50 [1] of 7 nM and an IC50 (PBMC) of 100 nM.
COc1ccc(-c2cnc3nc(N)nc(N4CCN(c5ccc(C)cc5)CC4)c3n2)cc1OC showed an IC50 [1] of 300 nM and an IC50 (PBMC) of 10 nM.
In the case of COc1ccc(-c2cnc3nc(N)nc(N4CCN(C(=O)NCc5ccc(F)cc5)CC4)c3n2)cc1OC, the IC50 [1] is reported as 37 nM and the IC50 (PBMC) is reported as 700 nM.
COc1ccc(-c2cnc3nc(N)nc(N4CCN(C(=O)Nc5ccc(F)cc5)CC4)c3n2)cc1OC showed an IC50 [1] of 7 nM and an IC50 (PBMC) of 510 nM.
For Cc1ccc(-c2cnc3nc(N)nc(OC(C)C)c3n2)cc1C, the IC50 [1] was 10000 nM and the IC50 (PBMC) was 6700 nM.
COc1ccc(-c2cnc3nc(N)nc(NC(C)C)c3n2)cc1OC showed an IC50 [1] of 600 nM and an IC50 (PBMC) of 300 nM.
Compound CC(C)Oc1nc(N)nc2ncc(-c3ccc(C#N)cc3)nc12 has an IC50 [1] of over 10000 nM and an IC50 (PBMC) of 6300 nM.
Compound COc1ccc(-c2cnc3nc(N)nc(N4CCN(C(=O)Nc5ccc(C#N)cc5)CC4)c3n2)cc1OC has an IC50 [1] of 74 nM and an IC50 (PBMC) of 630 nM.
With CC(C)Oc1nc(N)nc2ncc(-c3ccc(C(F)(F)F)cc3)nc12 the IC50 [1] was over 10000 nM and the IC50 (PBMC) was 9100 nM.
Work on COc1ccc(-c2cnc3nc(N)nc(N4CCN(c5ccccc5)CC4)c3n2)cc1OC yielded an IC50 [1] of 400 nM and an IC50 (PBMC) of 50 nM.
CCOc1nc(N)nc2ncc(-c3ccc(CC)cc3)nc12 showed an IC50 [1] of 8200 nM and an IC50 (PBMC) of 8500 nM.
Compound COc1ccc(-c2cnc3nc(N)nc(N4CCN(C(=O)CCc5ccccc5)CC4)c3n2)cc1OC has an IC50 [1] of 100 nM and an IC50 (PBMC) of 10 nM.
With CCOc1nc(N)nc2ncc(-c3ccc(F)c(F)c3)nc12 the IC50 [1] was over 10000 nM and the IC50 (PBMC) was over 10000 nM.
Compound CCOc1nc(N)nc2ncc(-c3ccc(C#N)cc3)nc12 has an IC50 [1] of over 10000 nM and an IC50 (PBMC) of over 10000 nM.
